Test results published in PMC12336824 (The Journal of Biological Chemistry, 2025).
Values after ≈ are worked out from the molar mass of the structure shown. Where two headings read alike, the source gives them in different places.

Legend:
V. cholerae wildtype = tested on: V. cholerae wildtype; set-up: species or system mice; details: mouse, in vivo
V. cholerae O395 [1] = test: microbe, parasite or virus in culture; format: cell-based; details: for effect on growth of V. cholerae: 50 μM, midlogarithmic phase (8 h), LB medium; for MIC50: 8 h
V. cholerae NQR complex = V. cholerae NQR complex (Vibrio cholerae serotype O1, UniProt Q9KPS2+Q9X4Q6); test: biochemical; details: read-out: inhibition of the ubiquinone reductase activity
V. cholerae 2010EL-1786 = test: microbe, parasite or virus in culture; format: cell-based; details: Vibrio cholerae
V. cholerae 2012EL-2176 = test: microbe, parasite or virus in culture; format: cell-based; details: Vibrio cholerae
V. cholerae O395 [2] = test: In vitro infection of T84 human intestinal cells, CFU of adherent and planktonic bacteria; format: cell-based; details: Vibrio cholerae
cholera toxin = test: microbe, parasite or virus in culture; format: cell-based, Vibrio cholerae
[3] = tested on: NADH dehydrogenases of V. cholerae membranes; format: biochemical; details: 50 μM, 200 μM NADH
terminal oxidases = format: biochemical; details: 50 μM inhibitor, 50 μM UQ-1
NDH-2 [4] = format: biochemical; details: 50 μM
[5] = tested on: wildtype V. cholerae membranes; format: biochemical; details: 50 μM
NDH-2 [6] = format: biochemical; details: 50 μM; remark: listed apart in the source
[7] = human
[8] = single oral dose 25 mg/kg, M. tuberculosis infection model ref 31; cited from earlier work
[9] = cited from earlier work

CC1(C)S[C@@H]2[C@H](NC(=O)[C@H](N)c3ccccc3)C(=O)N2[C@H]1C(=O)O [ampicillin]
survival of infected mice (V. cholerae wildtype): almost twice

CN(C)CCCN1c2ccccc2Sc2ccc(Cl)cc21 [chlorpromazine]
effect on growth of V. cholerae (V. cholerae O395 [1]): antimicrobial properties
inhibition at 50 µM (V. cholerae NQR complex): 20 to 40%

CC(C)/N=c1\cc2n(-c3ccc(Cl)cc3)c3ccccc3nc-2cc1Nc1ccc(Cl)cc1 [clofazimine]
effect on growth of V. cholerae (V. cholerae O395 [1]): strong inhibitory effects
MIC (V. cholerae O395 [1]; Vibrio cholerae): 5 µM (≈ 2.37 µg/mL)
MIC50 (V. cholerae O395 [1]; Vibrio cholerae): 3.4 ± 0.2 µM (≈ 1.61 µg/mL)
MIC (V. cholerae 2010EL-1786): 16 µM (≈ 7.57 µg/mL)
MIC (V. cholerae 2012EL-2176): 16 µM (≈ 7.57 µg/mL)
inhibition at 30 µM (V. cholerae O395 [2]; O395, T84, read-out: inhibition of the number of attached cells): > 75%
inhibition at 30 µM (V. cholerae O395 [2]; O395, T84, read-out: inhibition of the number of planktonic cells): > 90%
inhibition of cholera toxin production (cholera toxin; 30 µM): 92%
inhibition at 30 µM (cholera toxin; Vibrio cholerae, read-out: inhibition of cholera toxin production): 95%
survival of infected mice (V. cholerae wildtype): to the same extent as ampicillin
inhibition of respiratory activity with NADH [3]: strong inhibitors
respiratory activity with ubiquinol-1 (terminal oxidases): not sensitive
inhibition of NDH-2 activity in membranes (NDH-2 [4]): insensitive
sensitivity of activity of wildtype membranes [5]: sensitive
sensitivity of NADH-dependent ubiquinol reductase activity of Δnqr membranes (NDH-2 [6]): insensitive
inhibition at 50 µM (V. cholerae NQR complex): 95%
estimated concentration that can reach the proximal section of the small intestine [7]: around 150 μM
peak serum concentration [8]: 0.43 µg/mL
concentration in plasma [9]: submicromolar range

OCCN1CCN(CCCN2c3ccccc3Sc3ccc(Cl)cc32)CC1 [perphenazine]
inhibition at 50 µM (V. cholerae NQR complex; 50 μM): 20 to 40%

CN1CCN(CCCN2c3ccccc3Sc3ccc(Cl)cc32)CC1 [prochlorperazine]
effect on growth of V. cholerae (V. cholerae O395 [1]): strong inhibitory effects
MIC50 (V. cholerae O395 [1]; Vibrio cholerae): 24 ± 3 µM (≈ 8.97 µg/mL)

CC(CN1c2ccccc2Sc2ccccc21)N(C)C (centres unmarked) [promethazine]
inhibition at 50 µM (V. cholerae NQR complex; 50 μM): 20 to 40%

CSc1ccc2c(c1)N(CCC1CCCCN1C)c1ccccc1S2 (centres unmarked) [thioridazine]
effect on growth of V. cholerae (V. cholerae O395 [1]): strong inhibitory effects
MIC50 (V. cholerae O395 [1]; Vibrio cholerae): 27 ± 2 µM (≈ 10 µg/mL)
inhibition of respiratory activity with NADH [3]: strong inhibitors
respiratory activity with ubiquinol-1 (terminal oxidases): not sensitive
inhibition of NDH-2 activity in membranes (NDH-2 [4]): insensitive

CN1CCN(CCCN2c3ccccc3Sc3ccc(C(F)(F)F)cc32)CC1 [trifluoperazine]
inhibition at 50 µM (V. cholerae NQR complex; 50 μM): 20 to 40%
